The test addresses T1, human calcitonin-2 receptor (hCT2R) (Homo sapiens, UniProt P30988).
T1 construct: expressed in transfected cells; host or cells: Chinese hamster ovary (CHO) cells co-transfected with a 6CRE-luciferase reporter; receptor cDNA cloned from the MCF7 cell line
T1 sequence (P30988 25-474): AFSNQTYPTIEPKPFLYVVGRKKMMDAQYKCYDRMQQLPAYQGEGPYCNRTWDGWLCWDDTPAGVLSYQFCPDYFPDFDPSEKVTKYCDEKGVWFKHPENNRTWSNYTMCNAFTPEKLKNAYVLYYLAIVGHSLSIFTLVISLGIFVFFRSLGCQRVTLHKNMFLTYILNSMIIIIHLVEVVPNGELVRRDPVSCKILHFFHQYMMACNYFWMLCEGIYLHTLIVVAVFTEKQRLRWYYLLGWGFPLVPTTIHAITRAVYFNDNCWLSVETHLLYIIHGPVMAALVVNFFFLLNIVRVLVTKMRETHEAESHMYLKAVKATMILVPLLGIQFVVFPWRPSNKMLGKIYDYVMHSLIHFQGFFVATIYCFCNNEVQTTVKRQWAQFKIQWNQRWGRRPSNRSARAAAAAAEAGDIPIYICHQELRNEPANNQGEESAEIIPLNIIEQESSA
Description: HCT2R CRE-luc reporter assay. The format is cell-based. Conditions: agonist activity; CHO-6CRE-luciferase cells co-transfected with hCT2R. How it is done:
The compounds of the present invention elicit important and measurable pharmacological responses. As is to be expected, the efficacy of any compound will vary depending upon the particular assay and the particular compound tested.
All recombinant cell line human calcitonin receptor assays were carried out with the human receptor corresponding to GeneBank Accession Number X69920, [See: Molecular Pharmacology 46 (2):246–255, 1994, Cloning and characterization of an abundant subtype of the human calcitonin receptor] cloned from the MCF7 cell line (American Type Tissue Collection, Manassas, Va., USA, Catalog # HTB-22). Human calcitonin receptor (hCT2R) was cloned as a HindIII fragment into plasmid BS SKII. Chinese hamster ovary cells were co-transfected with a 6CRE-luciferase reporter system and hCTR2. HEK cells were transfected with hCTR2.
CHO-6CRE-luciferase cells with or without co-expressed hCTR2 were grown in suspension in commercially available cell culture medium supplemented with 2 mM L-glutamine and 5% fetal bovine serum (FBS). Sixteen hours before each assay, cells were collected and resuspended at 1,000,000 cells/ml in media without FBS. Cells were cultured in spinner flasks at 37° C. in an atmosphere of 5% CO2. At the time of the assay, cells were pelleted by centrifugation and resuspended in media without FBS at a concentration of 250,000 cells/ml. The cell suspension was pipetted into black 96-well microtiter plates (25,000 cells/well) containing test compounds. After a four-hour incubation at 37° C., media was aspirated, followed by addition of 50 microliters of LucLite and PBS (1:1) containing 1 mM CaCl2 and 1 mM MgCl2. The plates were sealed and incubated for 20 minutes in the dark. Luminescent responses were measured using a Packard TopCount.
Structure activity studies were performed on CHO-6CRE-luciferase cells with or without co-transfected hCT2R. Forty-eight hours before each assay, cells were removed with trypsin and plated in 96-well microtiter plates at a concentration of 25–100,000 cells/well. Sixteen hours before each assay, FBS-containing media was removed and replaced with media without FBS. Compounds were added and incubated for four hours at 37° C. After incubation, media was aspirated and 50 microliters of LucLite in PBS (1:1) containing 1 mM CaCl2 and 1 mM MgCl2 were added to each well. Plates were sealed and incubated for 20 minutes in the dark before quantification of luminescence on a Packard TopCount.
Concentration-response curves were calculated and potencies were reported as the concentration of compounds producing half-maximal responses (EC50) or the negative log of the concentration of compounds producing half-maximal responses (pEC50).

Some results are limits rather than exact numbers.

The values that follow come from patent publication US7189851B2, “Condensed heterocyclic compounds as calcitonin agonists” (SmithKline Beecham Corporation, priority 2002, dated 2007).

On to `CCOC(=O)c1c(CCc2ccc(F)cc2)cc2c(c1-c1ccc(C(=O)OCc3ccccc3)cc1)C(=O)N1CCC[C@@H]21` [Example 48, Ethyl (9bS)-6-{4-[(benzyloxy)carbonyl]phenyl}-8-[2-(4-fluorophenyl)ethyl]-5-oxo-2,3,5,9b-tetrahydro-1H-pyrrolo[2.1-a]isoindole-7-carboxylate], for which the EC50 (usually the concentration that produces a half-maximal response) is not below 1000 nM.
Take `CCOC(=O)c1c(CCc2ccc(F)cc2)cc2c(c1-c1ccc(C(=O)O)cc1)C(=O)N1CCC[C@@H]21` [Example 49, 4-{(9bS)-7-(ethoxycarbonyl)-8-[2-(4-fluorophenyl)ethyl]-5-oxo-2,3,5,9b-tetrahydro-1H-pyrrolo[2,1-α]isoindol-6-yl}benzoic acid]: the 50% effective concentration (EC50) was not below 1000 nM.
Next, `CCOC(=O)c1c(CCc2ccc(F)cc2)cc2c(c1-c1ccc(C(=O)NCc3ccco3)cc1)C(=O)N1CCC[C@@H]21` [Example 50, Ethyl (9bS)-8-[2-(4-flurophenyl)ethyl]-6-(4-{[(2-furylmethyl)amino]carbonyl}phenyl)-5oxo-2,3,5,9b-tetrahydro-1H-pyrrolo[2,1-α]isoindole-7-carboxylate]: not below 1000 nM; `CCOC(=O)c1c(Cc2ccsc2)nc2c(c1-c1ccc(C(=O)NCc3ccco3)cc1)C(=O)N1CCCC21` [Example 51, Ethyl (9aS)-4-(4-{[(2-furylmethyl)amino]carbonyl}phenyl)-5-oxo-2-(3-thienylmethyl)-7,8,9,9a-tetrahydro-5H-pyrido[2,3-α]pyrrolizine-3-carboxylate]: 100 to 1000 nM; `CCOC(=O)c1c(CCc2ccc(F)cc2)nc2c(c1-c1ccc(C(=O)N[C@@H](C)c3ccncc3)c(F)c1)C(=O)N1CCC[C@@H]21` [Example 52, Ethyl (9aS)-2-[2-(4-fluorophenyl)ethyl]-4-[3-fluoro-4-({[(1S)-1-(4-pyridinyl)ethyl]amino}carbonyl)phenyl]-5-oxo-7,8,9,9a-tetrahydro-5H-pyrido[2,3-α]pyrrolizine-3-carboxylate]: 10 to 100 nM.
The result for `CCOC(=O)c1c(CCc2ccc(F)cc2)nc2c(c1-c1ccc(C(=O)N[C@@H]3CCc4ccccc43)cc1[N+](=O)[O-])C(=O)N1CCC[C@@H]21` [Example 53, Ethyl (9aS)-4-(4-{[(1R)-2,3-dihydro-1H-inden-1-ylamino]carbonyl}-2-nitrophenyl)-2-[2-(4-fluorophenyl)ethyl]-5-oxo-7,8,9,9a-tetrahydro-5H-pyrido[2,3-α]pyrrolizine-3-carboxylate] reads 10 to 100 nM.
Next, `CCOC(=O)c1c(Cc2ccc(F)cc2)nc2c(c1-c1cc(C(=O)NCCc3cccs3)cc(C(F)(F)F)c1)C(=O)N1CCC[C@@H]21` [Example 54, Ethyl (9aS)-2-(4-fluorobenzyl)-5-oxo-4-[3-({[2-(2-thienyl)ethyl]amino}carbonyl)-5-(trifluoromethyl)phenyl]-7,8,9,9a-tetrahydro-5H-pyrido[2,3-α]pyrrolizine-3-carboxylate]: not below 1000 nM; `CCOC(=O)c1c(Cc2ccc(F)cc2)nc2c(c1-c1ccc(C(=O)NN3CCc4ccccc43)cc1)C(=O)N1CCC[C@@H]21` [Example 55, Ethyl (9aS)-4-{4-[(2,3-dihydro-1H-indol-1-ylamino)carbonyl]phenyl}-2-(4-fluorobenzyl)-5-oxo-7,8,9,9a-tetrahydro-5H-pyrido[2,3-α]pyrrolizine-3-carboxylate]: 10 to 100 nM.
With `CCOC(=O)c1c(CCc2ccc(F)cc2)nc2c(c1-c1cc(Br)cs1)C(=O)N1CCC[C@@H]21` [Example 56, Ethyl (9aS)-4-(4-bromo-2-thienyl)-2-[2-(4-fluorophenyl)ethyl]-5-oxo-7,8,9,9a-tetrahydro-5H-pyrido[2,3-α]pyrrolizine-3-carboxylate], the EC50 lay in the range of 100 to 1000 nM.
Next, `O=C(N[C@@H]1CCc2ccccc21)c1ccc2c(c1)[nH]c(=O)c1c(Cc3ccc(F)cc3)nc3c(c12)C(=O)N1CCC[C@@H]31` [Example 58, (8bS)-N-[(1R)-2,3-dihydro-1H-inden-1-yl]-7-(4-fluorobenzyl)-6,13-dioxo-5,8b,9,10,11,13-hexahydro-6H-benzo[c]pyrroizino[2,1-f][2,7]naphthyridine-3-carboxamide]: 100 to 1000 nM; `O=C(N[C@@H]1CCc2ccccc21)c1ccc2c(c1)[nH]c(=O)c1c(CCc3ccc(F)cc3)nc3c(c12)C(=O)N1CCC[C@@H]31` [Example 59, (8bS)-N-[(1R)-2,3-dihydro-1H-inden-1-yl]-7-[2-(4-fluorophenyl)ethyl]-6,13-dioxo-5,8b,9,10,11,13-hexahydro-6H-benzo[c]pyrrolizino[2,1-f][2,7]naphthyridine-3-carboxamide]: not above 10 nM.
Next, `CCOC(=O)C1=C(Cc2ccc(F)cc2)Nc2c(c(=O)n3n2CCC3)C1c1ccc(C(=O)N[C@@H]2CCc3ccccc32)cc1` (stereo partly drawn) [Example 60, Ethyl 4-(4-{[(1R)-2,3-dihydro-1H-inden-1-ylamino]carbonyl}phenyl)-2-(4-fluorobenzyl)-5-oxo-1,5,8,9-tetrahydro-4H,7H-pyrazolo[1′,2′:1,2]pyrazolo[3,4-b]pyridine-3-carboxylate]: 100 to 1000 nM; `CCOC(=O)C1=C(CCc2ccc(C(F)(F)F)cc2)Nc2c(c(=O)n3n2CCC3)C1c1ccc(C(=O)N[C@@H]2CCc3ccccc32)cc1` (stereo partly drawn) [Example 61, Ethyl 4-(4-{[(1R)-2,3-dihydro-1H-inden-1-ylamino]carbonyl}phenyl)-5-oxo-2-{2-[4-(trifluoromethyl)phenyl]ethyl}-1,5,8,9-tetrahydro-4H,7H-pyrazolo[1′,2′:1,2]pyrazolo[3,4-b]pyridine-3-carboxylate]: 10 to 100 nM; “Ethyl (9aS)-4-(4-{[(2-furylmethyl)amino]carbonyl}phenyl)-5-oxo-2-[2-(3-pyridinyl)ethyl]-7,8,9,9a-tetrahydro-5H-pyrido[2,3-α]pyrrolizine-3-carboxylate [Example 33]”: 10 to 100 nM.
On to “Ethyl (9aS)-4-(4-{[(2-furylmethyl)amino]carbonyl}phenyl)-5-oxo-2-{2-[4-(trifluoromethyl)phenyl]ethyl}-7,8,9,9a-tetrahydro-5H-pyrido[2,3-α]pyrrolizine-3-carboxylate-N-oxide [Example 38]”, for which the EC50 lay in the range of 100 to 1000 nM.
Turning to “Ethyl (9αS)-4-{4-[(benzylamino)carbonyl]phenyl}-5-oxo-2-{2-[4-(trifluoro-methyl)phenyl]ethyl}-9,9a-dihydro-5H-[1,3]oxazolo[3′,4′:1,2]pyrrolo[3,4-b]pyridine-3-carboxylate [Example 36]”, the EC50 was 10 to 100 nM.
The result for “Ethyl(9aS)-4-[3-({[2-(2-furyl)ethyl]amino}carbonyl)phenyl]-5-oxo-2-{2-[4-(trifluoromethyl)phenyl]ethyl}-7,8,9,9a-tetrahydro-5H-pyrido[2,3-a]pyrrolizine-3-carboxylate [Example 13]” reads not below 1000 nM.
